Article PMC6627609, “Targeting Quorum Sensing: High-Throughput Screening to Identify Novel LsrK Inhibitors” (International Journal of Molecular Sciences, 2019)
pIC50: −log10 of the molar value. Structures can show the parent of a compound that is named as a salt.

Each compound was assayed against LsrK (Salmonella typhimurium, UniProt Q8ZKQ6) (assay: biochemical). Details: not given.
Format: biochemical, S. typhimurium

Chain of LsrK (Q8ZKQ6 whole entry): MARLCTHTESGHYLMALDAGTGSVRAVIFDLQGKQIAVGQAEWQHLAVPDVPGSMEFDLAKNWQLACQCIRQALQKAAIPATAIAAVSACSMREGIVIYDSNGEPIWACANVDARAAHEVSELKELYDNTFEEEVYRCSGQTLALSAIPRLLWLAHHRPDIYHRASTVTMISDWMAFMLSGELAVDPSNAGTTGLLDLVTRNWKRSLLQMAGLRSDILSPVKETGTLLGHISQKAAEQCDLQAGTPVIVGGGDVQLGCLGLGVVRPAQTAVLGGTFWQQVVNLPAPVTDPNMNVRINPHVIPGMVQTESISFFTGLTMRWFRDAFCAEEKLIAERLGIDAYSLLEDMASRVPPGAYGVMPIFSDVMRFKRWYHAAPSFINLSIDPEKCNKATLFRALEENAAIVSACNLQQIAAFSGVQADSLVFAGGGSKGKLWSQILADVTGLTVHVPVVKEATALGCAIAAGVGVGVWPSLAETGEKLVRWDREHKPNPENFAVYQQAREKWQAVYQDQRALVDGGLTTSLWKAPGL

Row | SMILES | inhibition at 50 µM [%] | pIC50
1 | CC(=O)NS(=O)(=O)c1ccc(N)cc1 [SULFACETAMIDE] | 0 | –
2 | COc1ncnc(NS(=O)(=O)c2ccc(N)cc2)c1OC [SULFADOXINE] | 1 | –
3 | Cc1ccnc(NS(=O)(=O)c2ccc(N)cc2)n1 [SULFAMERAZINE] | 2 | –
4 | Cc1nnc(NS(=O)(=O)c2ccc(N)cc2)s1 [SULFAMETHIZOLE] | 2 | –
5 | Cc1cc(NS(=O)(=O)c2ccc(N)cc2)no1 [SULFAMETHOXAZOLE] | 1 | –
6 | Nc1ccc(S(=O)(=O)Nc2cnc3ccccc3n2)cc1 [SULFAQUINOXALINE SODIUM] | 1 | –
7 | O=C(O)c1cc(/N=N/c2ccc(S(=O)(=O)Nc3ccccn3)cc2)ccc1O [SULFASALAZINE] | 5 | –
8 | O=C1C(CC[S+]([O-])c2ccccc2)C(=O)N(c2ccccc2)N1c1ccccc1 (stereo not drawn) [SULFINPYRAZONE] | 129 | –
9 | CC(=O)N(c1onc(C)c1C)S(=O)(=O)c1ccc(N)cc1 [SULFISOXAZOLE ACETYL] | 4 | –
10 | Cc1noc(NS(=O)(=O)c2ccc(N)cc2)c1C [SULFISOXAZOLE] | 1 | –
11 | CCCCCCCCNC(C)C(O)c1ccc(SC(C)C)cc1 (stereo not drawn) [SULOCTIDIL] | 0 | –
12 | CCN1CCCC1CNC(=O)c1cc(S(N)(=O)=O)ccc1OC (stereo not drawn) [SULPIRIDE] | 83 | –
13 | Cc1ccc(C(=O)Nc2ccc(S(=O)(=O)O)c3cc(S(=O)(=O)O)cc(S(=O)(=O)O)c23)cc1NC(=O)c1cccc(NC(=O)Nc2cccc(C(=O)Nc3cc(C(=O)Nc4ccc(S(=O)(=O)O)c5cc(S(=O)(=O)O)cc(S(=O)(=O)O)c45)ccc3C)c2)c1 [SURAMIN] | 110 | –
14 | CCCCC1(COC(=O)CCC(=O)O)C(=O)N(c2ccccc2)N(c2ccccc2)C1=O [SUXIBUZONE] | 8 | –
15 | Cc1coc2c1C(=O)C(=O)c1c-2ccc2c1CCCC2(C)C [TANSHINONE IIA] | 50 | –
16 | CC[C@H]1OC(=O)[C@H](C)C(=O)[C@H](C)[C@@H](O[C@@H]2O[C@H](C)C[C@H](N(C)C)[C@H]2O)[C@](C)(OC)C[C@@H](C)C(=O)[C@H](C)[C@H]2N(CCCCn3cnc(-c4cccnc4)c3)C(=O)O[C@]12C [TELITHROMYCIN] | 7 | –
17 | COc1cc([C@@H]2c3cc4c(cc3[C@@H](O[C@@H]3O[C@@H]5CO[C@@H](c6cccs6)O[C@H]5[C@H](O)[C@H]3O)[C@H]3COC(=O)[C@H]23)OCO4)cc(OC)c1O [TENIPOSIDE] | 2 | –
18 | COc1cc2nc(N3CCN(C(=O)C4CCCO4)CC3)nc(N)c2cc1OC (stereo not drawn) [TERAZOSIN HYDROCHLORIDE] | 1 | –
19 | CN(C/C=C/C#CC(C)(C)C)Cc1cccc2ccccc12 [TERBINAFINE HYDROCHLORIDE] | 1 | –
20 | N#Cc1c(Cl)c(Cl)c(Cl)c(C#N)c1Cl [TETRACHLOROISOPHTHALONITRILE] | 138 | 5.05

Row | SMILES | inhibition at 50 µM [%] | pIC50
21 | CN(C)[C@@H]1C(O)=C(C(N)=O)C(=O)[C@@]2(O)C(O)=C3C(=O)c4c(O)cccc4[C@@](C)(O)[C@H]3C[C@@H]12 [TETRACYCLINE HYDROCHLORIDE] | 114 | –
22 | O=C(O[C@@H]1Cc2c(O)cc(O)cc2O[C@@H]1c1cc(O)c(=O)c2c(O)c(O)cc([C@H]3Oc4cc(O)cc(O)c4C[C@H]3O)c2c1)c1cc(O)c(O)c(O)c1 [THEAFLAVIN MONOGALLATES] | 129 | –
23 | O=c1c(O)cc([C@H]2Oc3cc(O)cc(O)c3C[C@H]2O)cc2c([C@H]3Oc4cc(O)cc(O)c4C[C@H]3O)cc(O)c(O)c12 [THEAFLAVIN] | 133 | –
24 | CCNC(=O)CC[C@H](N)C(=O)O [THEANINE] | 1 | –
25 | Cn1cnc2c1c(=O)[nH]c(=O)n2C [THEOBROMINE] | 0 | –
26 | c1ccc2[nH]c(-c3cscn3)nc2c1 [THIABENDAZOLE] | 5 | –
27 | Nc1nc2nc[nH]c2c(=S)[nH]1 [THIOGUANINE] | 1 | –
28 | S=P(N1CC1)(N1CC1)N1CC1 [THIOTEPA] | 14 | –
29 | CN(C)C(=S)SSC(=S)N(C)C [THIRAM] | 104 | –
30 | COc1ccc(CN(CCN(C)C)c2ncccn2)cc1 [THONZYLAMINE HYDROCHLORIDE, reference compound] | 112 | 4.62
31 | CC1=CC(=O)C(C(C)C)=CC1=O [THYMOQUINONE] | 2 | –
32 | CC1(C)S[C@@H]2[C@H](NC(=O)[C@H](C(=O)O)c3ccsc3)C(=O)N2[C@H]1C(=O)O [TICARCILLIN DISODIUM] | 0 | –
33 | Clc1ccccc1CN1CCc2sccc2C1 [TICLOPIDINE HYDROCHLORIDE] | 1 | –
34 | CC[C@H]1OC(=O)C[C@@H](O)[C@H](C)[C@@H](O[C@@H]2O[C@H](C)[C@@H](O)[C@H](N(C)C)[C@H]2O)[C@@H](CCN2C[C@H](C)C[C@H](C)C2)C[C@@H](C)C(=O)/C=C/C(C)=C/[C@@H]1CO[C@@H]1O[C@H](C)[C@@H](O)[C@@H](OC)[C@H]1OC [TILMICOSIN] | 16 | –
35 | CCS(=O)(=O)CCn1c([N+](=O)[O-])cnc1C [TINIDAZOLE] | 1 | –
36 | Clc1ccc(C(Cn2ccnc2)OCc2ccsc2Cl)c(Cl)c1 (stereo not drawn) [TIOCONAZOLE] | 2 | –
37 | O=c1oc2cc(O)ccc2s1 [TIOXOLONE] | 88 | –
38 | NC[C@H]1O[C@H](O[C@H]2[C@H](O)[C@@H](O[C@H]3O[C@H](CO)[C@@H](O)[C@H](N)[C@H]3O)[C@H](N)C[C@@H]2N)[C@H](N)C[C@@H]1O [TOBRAMYCIN] | 0 | –
39 | CCOC(=O)NNc1nncc2ccccc12 [TODRALAZINE HYDROCHLORIDE] | 2 | –
40 | Cc1c(Cl)cccc1Nc1ccccc1C(=O)O [TOLFENAMIC ACID] | 97 | –

Row | SMILES | inhibition at 50 µM [%] | pIC50
41 | Cc1ccc(C(=O)c2ccc(CC(=O)O)n2C)cc1 [TOLMETIN SODIUM] | 1 | –
42 | C[C@H]1CC[C@]2(NC1)O[C@H]1C[C@H]3[C@@H]4CC[C@H]5C[C@@H](O[C@@H]6O[C@H](CO)[C@H](O[C@@H]7O[C@H](CO)[C@@H](O)[C@H](O[C@@H]8OC[C@@H](O)[C@H](O)[C@H]8O)[C@H]7O[C@@H]7O[C@H](CO)[C@@H](O)[C@H](O)[C@H]7O)[C@H](O)[C@H]6O)CC[C@]5(C)[C@H]4CC[C@]3(C)[C@H]1[C@@H]2C [TOMATINE] | 2 | –
43 | CC1(C)O[C@@H]2[C@@H](CO[C@@]3(COS(N)(=O)=O)OC(C)(C)O[C@@H]23)O1 [TOPIRAMATE] | 1 | –
44 | CC[C@@]1(O)C(=O)OCc2c1cc1n(c2=O)Cc2cc3c(CN(C)C)c(O)ccc3nc2-1 [TOPOTECAN HYDROCHLORIDE] | 0 | –
45 | Cc1ccc(S(=O)(=O)NCl)cc1 [TOSYL[…]] | 3 | –
46 | CC(=O)Oc1ccc(/C=C/c2cc(OC(C)=O)cc(OC(C)=O)c2)cc1 [TRIACETYLRESVERATROL] | 1 | –
47 | C[C@]12C=CC(=O)C=C1CC[C@H]1[C@@H]3C[C@@H](O)[C@](O)(C(=O)CO)[C@@]3(C)C[C@H](O)[C@@]12F [TRIAMCINOLONE] | 11 | –
48 | NS(=O)(=O)c1cc2c(cc1Cl)NC(C(Cl)Cl)NS2(=O)=O (stereo not drawn) [TRICHLORMETHIAZIDE] | 1 | –
49 | Oc1cc(Cl)ccc1Oc1ccc(Cl)cc1Cl [TRICLOSAN] | 2 | –
50 | CN(C)CCCN1c2ccccc2Sc2ccc(C(F)(F)F)cc21 [TRIFLUPROMAZINE HYDROCHLORIDE] | 122 | –
51 | COc1cc(Cc2cnc(N)nc2N)cc(OC)c1OC [TRIMETHOPRIM] | 0 | –
52 | CC(CN(C)C)CN1c2ccccc2CCc2ccccc21 (stereo not drawn) [TRIMIPRAMINE MALEATE] | 111 | –
53 | CN(C)CCN(Cc1ccccc1)c1ccccn1 [TRIPELENNAMINE CITRATE] | 2 | –
54 | Cc1c(C)c2c(c(C)c1O)CCC(C)(C(=O)O)O2 (stereo not drawn) [TROLOX] | 0 | –
55 | N[C@@H](Cc1ccc(O)cc1)C(=O)O [TYROSINE] | 1 | –
56 | COC1=C(OC)C(=O)C(C/C=C(\C)CC/C=C(\C)CC/C=C(\C)CC/C=C(\C)CC/C=C(\C)CC/C=C(\C)CC/C=C(\C)CC/C=C(\C)CC/C=C(\C)CCC=C(C)C)=C(C)C1=O [UBIDECARENEONE] | 1 | –
57 | C=CCCCCCCCCC(=O)O [UNDECYLENIC ACID] | 1 | –
58 | COc1ccccc1N1CCN(CCCNc2cc(=O)n(C)c(=O)n2C)CC1 [URAPIDIL HYDROCHLORIDE] | 1 | –
59 | CC(=O)c1c(O)c(C)c(O)c2c1OC1=CC(=O)C(C(C)=O)C(=O)C12C (stereo not drawn) [USNIC ACID] | 204 | –

Same assay, conditions: 50 µM

Row | SMILES | Inhibition (%)
60 | Cc1c(S(=O)(=O)[O-])oc2c1C(=O)C(=O)c1c-2ccc2c1CCCC2(C)C.[Na+] [TANSHINONE IIA SULFONATE SODIUM] | 55
61 | CC(C)(C)NCC(O)c1cc(O)cc(O)c1.CC(C)(C)NCC(O)c1cc(O)cc(O)c1.O=S(=O)(O)O (stereo not drawn) [TERBUTALINE HEMISULFATE] | 1
62 | Cl.c1ccc(C2CN3CCSC3=N2)cc1 (stereo not drawn) [TETRAMIZOLE HYDROCHLORIDE] | 22
63 | O=c1cccc2n1C[C@@H]1C[C@H]2CN2CCCC[C@H]12.[O-][Cl+3]([O-])([O-])O [THERMOPSINE PERCHLORATE] | 0
64 | O=C(O)CCCCC1CCSS1 (stereo not drawn) [THIOCTIC ACID] | 170%
65 | CN(C)CCOc1ccc(/C(=C(/CCCl)c2ccccc2)c2ccccc2)cc1 [TOREMIPHENE CITRATE] | 138
66 | Cl.Cl.NCCNCCNCCN [TRIENTINE HYDROCHLORIDE] | 13
67 | O=C([O-])CN(CCN(CC(=O)[O-])CC(=O)O)CC(=O)[O-].[Na+].[Na+].[Na+] [TRISODIUM ETHYLENEDIAMINE TETRACETATE] | 1
68 | COc1cc2c3cc1Oc1cc(ccc1O)C[C@@H]1c4c(cc(OC)c(O)c4Oc4ccc(cc4)C[C@@H]3N(C)CC2)CC[N+]1(C)C.Cl.O.O.O.O.O.[Cl-] [TUBOCURARINE CHLORIDE] | 0
69 | CC[C@H]1OC(=O)C[C@@H](O)[C@H](C)[C@@H](O[C@@H]2O[C@H](C)[C@@H](O[C@H]3C[C@@](C)(O)[C@@H](O)[C@H](C)O3)[C@H](N(C)C)[C@H]2O)[C@@H](CC=O)C[C@@H](C)C(=O)/C=C/C(C)=C/[C@@H]1CO[C@@H]1O[C@H](C)[C@@H](O)[C@@H](OC)[C@H]1OC [TYLOSIN TARTRATE] | 1
70 | O=c1ccn([C@@H]2O[C@H](COP(=O)([O-])OP(=O)([O-])OP(=O)([O-])O)[C@@H](O)[C@H]2O)c(=O)[nH]1.[Na+].[Na+].[Na+] [URIDINE TRIPHOSPHATE TRISODIUM] | 1
